Test results taken from ChEMBL document CHEMBL5042497, “Design, synthesis, and biological evaluation of carbamate derivatives of N-salicyloyl tryptamine as multifunctional agents for the treatment of Alzheimer's disease” (Eur J Med Chem, 2022).
The source made the active and inactive calls. No cut-off for these calls is given here.

Legend:
HT-22 = experiment: cells; format: functional, cell-based; details: Mus musculus, HT-22, 24 h
Description: Cytotoxicity against mouse HT-22 cells assessed as reduction in cell viability measured after 24 hrs by MTT assay

Acetylcholinesterase [1] = molecular target: Acetylcholinesterase (Electrophorus electricus, UniProt O42275); experiment: Inhibition of electric eel AChE using acetylthiocholine iodide as substrate preincubated for 10 mins followed by substrate addition and measured for 15 mins by Ellman's method
BV-2 [2] = experiment: cells; format: functional, cell-based; details: Mus musculus, BV-2, 24 h
Description: Cytotoxicity against mouse BV-2 cells assessed as reduction in cell viability measured after 24 hrs by MTT assay

Cholinesterase [3] = molecular target: Cholinesterase (Equus caballus, UniProt P81908); experiment: Inhibition of equine serum BChE using butyrylthiocholine iodide as substrate preincubated for 10 mins followed by substrate addition and measured after 15 mins by Ellman's method
Acetylcholinesterase [4] = molecular target: Acetylcholinesterase (Homo sapiens, UniProt P22303); experiment: Inhibition of AChE (unknown origin)
Cholinesterase [5] = molecular target: Cholinesterase (Homo sapiens, UniProt P06276); experiment: Inhibition of BuChE (unknown origin)
BV-2 [6] = experiment: Anti-neuroinflammation in mouse BV-2 cells assessed as decrease in LPS-induced IL-6 production at 1.25 umol/L measured after 24 hrs by ELISA; format: functional, cell-based; details: dose 1.25 µmol/L
BV-2 [7] = experiment: Anti-neuroinflammation in mouse BV-2 cells assessed as decrease in LPS-induced iNOS activity at 1.25 umol/L by fluorescence based assay; format: functional, cell-based; details: dose 1.25 µmol/L
Mus musculus [8] = experiment: Anti-alzheimer activity against scopolamine-induced cognitive dysfunction mouse model assessed as […] of AChE activity in hippocampus at 5 mg/kg, po measured after 10 days by colorimetric analysis; format: functional, organism-based; details: time 10.0 day
Mus musculus [9] = experiment: Anti-alzheimer activity against scopolamine-induced cognitive dysfunction mouse model assessed as change in neuron damage in hippocampal CA3 region at 5 mg/kg, po measured after 10 days by Nissl staining based assay; format: functional, organism-based; details: time 10.0 day
BV-2 [10] = experiment: Anti-neuroinflammation in mouse BV-2 cells assessed as decrease in LPS-induced TNF-alpha production at 1.25 umol/L measured after 24 hrs by ELISA; format: functional, cell-based; details: dose 1.25 µmol/L
Mus musculus [11] = experiment: Anti-alzheimer activity against scopolamine-induced cognitive dysfunction mouse model assessed as change in neuron damage in hippocampal CA1 region at 5 mg/kg, po measured after 10 days by Nissl staining based assay; format: functional, organism-based; details: time 10.0 day
BV-2 [12] = experiment: Anti-neuroinflammation in mouse BV-2 cells assessed as decrease in LPS-induced iNOS activity at 12.5 umol/L by fluorescence based assay; format: functional, cell-based; details: dose 12.5 µmol/L
BV-2 [13] = experiment: Anti-neuroinflammation in mouse BV-2 cells assessed as decrease in LPS-induced IL-6 production at 12.5 umol/L measured after 24 hrs by ELISA; format: functional, cell-based; details: dose 12.5 µmol/L
BV-2 [14] = experiment: Anti-neuroinflammation in mouse BV-2 cells assessed as decrease in LPS-induced TNF-alpha production at 12.5 umol/L measured after 24 hrs by ELISA; format: functional, cell-based; details: dose 12.5 µmol/L
[15] = molecular target: Amyloid-beta precursor protein (Homo sapiens) (UniProt P05067); experiment: Inhibition of amyloid beta (1 to 42 ) (unknown origin) aggregation at 20 umol/L incubated for 24 hrs by thioflavin-T fluorescence method relative to control; details: dose 20.0 µmol/L
Mus musculus [16] = experiment: Anti-alzheimer activity against scopolamine-induced cognitive dysfunction mouse model assessed as change in neuron damage in hippocampal CA1 region at 50 to 100 mg/kg, po measured after 10 days by Nissl staining based assay; format: functional, organism-based; details: Hippocampus, dose 50-100 mg/kg, time 10.0 day
BV-2 [17] = experiment: Anti-neuroinflammation in mouse BV-2 cells assessed as inhibition of LPS-induced NO production at 100 to 3.125 umol/L measured after 24 hrs by Griess method; format: functional, cell-based; details: dose 100-3.125 µmol/L
Mus musculus [18] = experiment: Anti-alzheimer activity against scopolamine-induced cognitive dysfunction mouse model assessed as […] of AChE activity in hippocampus at 50 to 100 mg/kg, po dosed for 10 days by colorimetric analysis; format: functional, organism-based; details: dose 50-100 mg/kg, time 10.0 day
Mus musculus [19] = experiment: Anti-alzheimer activity against scopolamine-induced cognitive dysfunction mouse model assessed as change in neuron damage in hippocampal CA3 region at 50 to 100 mg/kg, po measured after 10 days by Nissl staining based assay; format: functional, organism-based; details: Hippocampus, dose 50-100 mg/kg, time 10.0 day

Chain of Acetylcholinesterase (Homo sapiens, UniProt P22303) (P22303 whole entry): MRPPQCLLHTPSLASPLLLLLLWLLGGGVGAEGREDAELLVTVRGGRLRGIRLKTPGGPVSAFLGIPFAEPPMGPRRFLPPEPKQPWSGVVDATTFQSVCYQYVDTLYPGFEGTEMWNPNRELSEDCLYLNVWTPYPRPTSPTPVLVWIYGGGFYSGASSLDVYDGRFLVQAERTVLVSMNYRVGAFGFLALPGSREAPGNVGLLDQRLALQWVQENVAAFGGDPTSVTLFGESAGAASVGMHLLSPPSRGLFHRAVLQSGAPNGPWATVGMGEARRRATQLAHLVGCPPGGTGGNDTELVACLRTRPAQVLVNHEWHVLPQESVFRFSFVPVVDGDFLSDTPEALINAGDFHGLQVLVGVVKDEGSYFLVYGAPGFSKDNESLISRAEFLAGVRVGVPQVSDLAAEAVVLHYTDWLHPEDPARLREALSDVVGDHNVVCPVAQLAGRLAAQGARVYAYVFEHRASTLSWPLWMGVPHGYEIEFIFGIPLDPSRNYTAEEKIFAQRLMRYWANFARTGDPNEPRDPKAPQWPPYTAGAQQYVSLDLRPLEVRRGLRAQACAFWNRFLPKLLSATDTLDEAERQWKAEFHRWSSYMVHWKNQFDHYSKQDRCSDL
Chain of Cholinesterase (Homo sapiens, UniProt P06276) (P06276 whole entry): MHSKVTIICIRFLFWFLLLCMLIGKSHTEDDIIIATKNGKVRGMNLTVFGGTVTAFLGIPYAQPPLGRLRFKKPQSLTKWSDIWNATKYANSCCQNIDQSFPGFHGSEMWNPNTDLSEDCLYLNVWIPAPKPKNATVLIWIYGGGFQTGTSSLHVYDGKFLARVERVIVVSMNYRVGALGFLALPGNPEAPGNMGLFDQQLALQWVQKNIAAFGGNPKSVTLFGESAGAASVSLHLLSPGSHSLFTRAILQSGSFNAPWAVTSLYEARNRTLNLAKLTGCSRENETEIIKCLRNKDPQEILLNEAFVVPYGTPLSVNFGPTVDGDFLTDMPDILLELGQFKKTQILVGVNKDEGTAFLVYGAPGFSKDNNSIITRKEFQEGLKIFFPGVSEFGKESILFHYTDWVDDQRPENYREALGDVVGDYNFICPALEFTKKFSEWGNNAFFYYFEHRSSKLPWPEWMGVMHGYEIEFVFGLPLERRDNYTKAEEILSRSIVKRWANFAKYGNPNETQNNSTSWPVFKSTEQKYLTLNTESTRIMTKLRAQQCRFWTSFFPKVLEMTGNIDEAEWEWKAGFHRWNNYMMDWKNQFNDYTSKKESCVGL
Chain of Cholinesterase (Equus caballus, UniProt P81908) (P81908 whole entry): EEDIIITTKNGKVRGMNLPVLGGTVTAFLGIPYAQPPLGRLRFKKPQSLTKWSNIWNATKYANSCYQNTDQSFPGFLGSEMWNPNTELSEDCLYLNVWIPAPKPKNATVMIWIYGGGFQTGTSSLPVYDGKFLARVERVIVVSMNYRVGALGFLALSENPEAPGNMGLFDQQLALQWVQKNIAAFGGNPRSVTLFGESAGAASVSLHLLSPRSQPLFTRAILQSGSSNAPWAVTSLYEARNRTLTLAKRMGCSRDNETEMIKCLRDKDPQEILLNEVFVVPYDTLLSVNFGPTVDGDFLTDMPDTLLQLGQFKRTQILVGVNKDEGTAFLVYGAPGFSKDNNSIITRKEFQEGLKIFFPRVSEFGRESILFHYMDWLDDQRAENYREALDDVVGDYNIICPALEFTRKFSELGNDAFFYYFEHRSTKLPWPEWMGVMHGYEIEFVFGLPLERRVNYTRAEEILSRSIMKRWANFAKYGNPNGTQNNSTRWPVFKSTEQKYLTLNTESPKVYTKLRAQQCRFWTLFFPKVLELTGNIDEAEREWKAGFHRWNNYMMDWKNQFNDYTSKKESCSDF
Chain of Acetylcholinesterase (Electrophorus electricus, UniProt O42275) (O42275 whole entry): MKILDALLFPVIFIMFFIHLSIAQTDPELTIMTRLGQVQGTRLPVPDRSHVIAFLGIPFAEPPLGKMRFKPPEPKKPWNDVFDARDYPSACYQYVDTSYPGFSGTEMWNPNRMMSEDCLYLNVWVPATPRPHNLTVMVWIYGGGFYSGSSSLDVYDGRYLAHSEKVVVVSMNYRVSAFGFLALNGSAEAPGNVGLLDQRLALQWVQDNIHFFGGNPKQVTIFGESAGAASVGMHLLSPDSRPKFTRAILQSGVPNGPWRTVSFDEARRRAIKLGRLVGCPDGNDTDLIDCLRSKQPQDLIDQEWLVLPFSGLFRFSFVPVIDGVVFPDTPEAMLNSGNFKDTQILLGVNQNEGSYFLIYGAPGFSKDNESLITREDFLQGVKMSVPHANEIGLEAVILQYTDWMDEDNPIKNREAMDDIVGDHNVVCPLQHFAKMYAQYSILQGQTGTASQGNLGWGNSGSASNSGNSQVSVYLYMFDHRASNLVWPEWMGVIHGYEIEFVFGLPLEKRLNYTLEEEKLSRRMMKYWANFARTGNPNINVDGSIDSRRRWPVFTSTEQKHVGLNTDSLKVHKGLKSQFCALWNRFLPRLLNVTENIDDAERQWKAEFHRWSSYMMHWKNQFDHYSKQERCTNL
Chain of Amyloid-beta precursor protein (Homo sapiens) (P05067 whole entry): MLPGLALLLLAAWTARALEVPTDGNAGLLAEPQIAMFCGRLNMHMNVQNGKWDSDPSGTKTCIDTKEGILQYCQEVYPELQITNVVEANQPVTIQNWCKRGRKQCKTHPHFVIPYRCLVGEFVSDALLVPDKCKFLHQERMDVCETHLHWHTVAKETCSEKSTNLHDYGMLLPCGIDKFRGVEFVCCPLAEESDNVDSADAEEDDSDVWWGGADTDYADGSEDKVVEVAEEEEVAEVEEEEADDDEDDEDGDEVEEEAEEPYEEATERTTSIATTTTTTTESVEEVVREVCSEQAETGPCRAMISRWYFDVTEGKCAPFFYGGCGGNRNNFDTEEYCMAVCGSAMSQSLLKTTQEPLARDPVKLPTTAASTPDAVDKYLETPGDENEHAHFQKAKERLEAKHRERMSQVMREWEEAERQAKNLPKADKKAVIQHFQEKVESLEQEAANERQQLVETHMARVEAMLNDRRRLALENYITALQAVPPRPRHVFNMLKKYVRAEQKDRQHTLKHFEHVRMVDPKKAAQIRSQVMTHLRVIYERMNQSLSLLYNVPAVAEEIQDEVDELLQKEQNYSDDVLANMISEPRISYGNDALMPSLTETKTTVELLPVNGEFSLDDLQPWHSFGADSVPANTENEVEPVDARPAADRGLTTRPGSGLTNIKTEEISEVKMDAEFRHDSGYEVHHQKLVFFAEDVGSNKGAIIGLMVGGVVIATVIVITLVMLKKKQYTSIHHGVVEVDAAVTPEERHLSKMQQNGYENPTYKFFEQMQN

SMILES | IC50 (HT-22) [µM] | IC50 (Acetylcholinesterase [1]) [µM] | IC50 (BV-2 [2]) [µM] | IC50 (Cholinesterase [3]) [µM] | also measured
CCCCN(CCCC)C(=O)Oc1ccccc1C(=O)NCCc1c[nH]c2ccccc12 | 12.8 | 34.9 | 116 | 8.01 | 
O=C(NCCc1c[nH]c2ccccc12)c1ccccc1OC(=O)N(c1ccccc1)c1ccccc1 | > 100 | > 100 | 126 | 4.73 | 
CN1CCN(C(=O)Oc2ccccc2C(=O)NCCc2c[nH]c3ccccc23)CC1 | 92.7 | 66 | 49.7 | 5.14 | 
O=C(NCCc1c[nH]c2ccccc12)c1ccccc1OC(=O)N1CCc2ccccc21 | > 100 | > 100 | 137 | 30 | 
O=C(NCCc1c[nH]c2ccccc12)c1ccccc1OC(=O)N1CCCC1 | 64.3 | > 100 | 56 | 1.2 | 
CCN(CC)C(=O)Oc1ccccc1C(=O)NCCc1c[nH]c2ccccc12 | 57.2 | 68.5 | 32.1 | 14 | 
CON(C)C(=O)Oc1cccc(C(=O)NCCc2c[nH]c3ccccc23)c1 | 48.3 | > 100 | 12.4 | 1.27 | 
CNC(=O)Oc1ccc2c(c1)[C@]1(C)CCOC1N2C (stereo partly specified) |  |  |  |  | IC50 (Acetylcholinesterase [4]): 0.004 µM
CC(C)c1ccc(NC(=O)Oc2ccc3c(c2)[C@]2(C)CCOC2O3)cc1 (stereo partly specified) |  |  |  |  | IC50 (Cholinesterase [5]): 0.027 µM
CN(C)C(=O)Oc1ccccc1C(=O)NCCc1c[nH]c2ccccc12 | 75.4 | 16.7 | 35.2 | 3.95 | 
O=C(NCCc1c[nH]c2ccccc12)c1ccccc1OC(=O)N1CCOCC1 | 97.7 | > 100 | 82.8 | 10 | 
O=C(NCCc1c[nH]c2ccccc12)c1ccccc1OC(=O)N1CCC1 | 40.1 | > 100 | 33.3 | 17 | 
COc1cc2c(cc1OC)C(=O)C(CC1CCN(Cc3ccccc3)CC1)C2 (stereo unspecified) [DONEPEZIL] | 56.4 |  | 1.54 |  | Activity (BV-2 [6]): Active; Activity (BV-2 [7]): Active; Activity (Mus musculus [8]): Active; Activity (Mus musculus [9]): Active; Activity (BV-2 [10]): Active; Activity (Mus musculus [11]): Active
O=C(NCCc1c[nH]c2ccccc12)c1ccccc1O | 101 | 23.2 | 26.8 | 15.9 | Activity (BV-2 [12]): Active; Activity (BV-2 [13]): Active; Activity (BV-2 [14]): Active; inhibition [15]: 19.6%; Activity (Mus musculus [16]): Active; Activity (BV-2 [17]): Active; Activity (Mus musculus [18]): Active; Activity (Mus musculus [19]): Active
O=C(NCCc1c[nH]c2ccccc12)c1ccccc1OC(=O)N1CCCCCC1 | 25.1 | > 100 | 32.7 | 24.1 | 
CCCN(CCC)C(=O)Oc1ccccc1C(=O)NCCc1c[nH]c2ccccc12 | 25.4 | 37.2 | 0.33 | 35.8 | 
CN1CC[C@@]2(C)c3cc(OC(=O)Nc4ccccc4)ccc3N(C)[C@@H]12 [PHENSERINE] |  |  |  |  | IC50 (Acetylcholinesterase [4]): 1.56 µM
CN(C(=O)Oc1ccccc1C(=O)NCCc1c[nH]c2ccccc12)c1ccccc1 | 48.5 | > 100 | 20.6 | 29.7 | 
O=C(NCCc1c[nH]c2ccccc12)c1ccccc1OC(=O)N(Cc1ccccc1)Cc1ccccc1 | > 100 | > 100 | 137 | 15.4 | 
CN1c2ccc(OC(=O)NCC3CCCCC3)cc2[C@]2(C)CCN(CCc3ccccc3)[C@H]12 |  |  |  |  | IC50 (Acetylcholinesterase [4]): 0.0018 µM; IC50 (Cholinesterase [5]): 0.0018 µM
O=S1(=O)OC(c2ccc(O)cc2)(c2ccc(O)cc2)c2ccccc21 |  |  |  |  | inhibition [15]: 34.8%
CCNC(=O)Oc1ccc2c(c1)[C@]1(C)CCOC1O2 (stereo partly specified) |  |  |  |  | IC50 (Acetylcholinesterase [4]): 0.006 µM; IC50 (Cholinesterase [5]): 0.006 µM
O=C(NCCc1c[nH]c2ccccc12)c1ccccc1OC(=O)N1CCSCC1 | > 100 | > 100 | 1.53 | 1.44 | 
CON(C)C(=O)Oc1ccc(C(=O)NCCc2c[nH]c3ccccc23)cc1 | > 100 | 3.11 | 30.3 | 6.61 | 
O=C(NCCc1c[nH]c2ccccc12)c1ccccc1OC(=O)N1CCCCC1 | 24.4 | > 100 | 32.8 | > 100 | 
